According to PMC11649115, “In vitro safety evaluation of dopamine D3R antagonist, R-VK4-116, as a potential medication for the treatment of opioid use disorder” (PLOS ONE, 2024):
Where two headings read alike, the source gives them in different places.

How the values were obtained:
TNK1 = target: T1, TNK1 (Homo sapiens, UniProt Q13470); experiment: KINOMEscan binding (% Ctrl, Kd)
T1 construct: made in house; host or cells: E. coli BL21-derived host (T7 phage) or HEK-293
T1 sequence (Q13470 1-666): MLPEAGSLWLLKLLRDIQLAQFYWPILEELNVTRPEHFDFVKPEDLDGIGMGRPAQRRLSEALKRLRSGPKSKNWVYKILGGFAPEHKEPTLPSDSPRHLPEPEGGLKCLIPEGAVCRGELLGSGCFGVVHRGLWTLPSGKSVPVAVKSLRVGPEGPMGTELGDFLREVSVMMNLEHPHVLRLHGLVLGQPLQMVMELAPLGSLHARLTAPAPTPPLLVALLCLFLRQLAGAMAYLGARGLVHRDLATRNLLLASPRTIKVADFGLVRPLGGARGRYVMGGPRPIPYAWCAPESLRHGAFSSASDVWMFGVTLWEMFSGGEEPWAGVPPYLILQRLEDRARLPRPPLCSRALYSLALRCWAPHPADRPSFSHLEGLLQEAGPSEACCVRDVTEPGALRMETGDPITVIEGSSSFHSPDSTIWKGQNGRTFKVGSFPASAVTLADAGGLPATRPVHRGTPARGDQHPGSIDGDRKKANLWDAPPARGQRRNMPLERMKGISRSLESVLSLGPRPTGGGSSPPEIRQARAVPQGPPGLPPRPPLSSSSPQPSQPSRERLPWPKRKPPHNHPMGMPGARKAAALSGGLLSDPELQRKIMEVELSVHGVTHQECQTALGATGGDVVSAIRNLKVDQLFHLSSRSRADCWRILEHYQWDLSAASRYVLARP
Method: Briefly, E. coli host derived from the BL21 strain were grown to log-phase and infected with kinase-tagged T7 phage and incubated with shaking at 32°C until lysis. The lysates were centrifuged and filtered to remove cell debris. The remaining kinases were produced in HEK-293 cells and subsequently tagged with DNA for qPCR detection. Streptavidin-coated magnetic beads were treated with biotinylated small molecule ligands to generate affinity resins for kinase assays. The liganded beads were blocked with excess biotin and washed to remove unbound ligand and to reduce non-specific phage binding. […] Selectivity Score (S-score) was a quantitative measure of compound selectivity. […] The binding constants (Kds) were also determined with a standard dose-response curve using the Hill equation and Levenberg-Marquardt algorithm [24, 25].

CYP1A2 = target: T2, CYP1A2 (Homo sapiens, UniProt P05177); experiment: CYP inhibition in human liver microsomes; conditions: human liver microsomes
T2 sequence (P05177 1-516): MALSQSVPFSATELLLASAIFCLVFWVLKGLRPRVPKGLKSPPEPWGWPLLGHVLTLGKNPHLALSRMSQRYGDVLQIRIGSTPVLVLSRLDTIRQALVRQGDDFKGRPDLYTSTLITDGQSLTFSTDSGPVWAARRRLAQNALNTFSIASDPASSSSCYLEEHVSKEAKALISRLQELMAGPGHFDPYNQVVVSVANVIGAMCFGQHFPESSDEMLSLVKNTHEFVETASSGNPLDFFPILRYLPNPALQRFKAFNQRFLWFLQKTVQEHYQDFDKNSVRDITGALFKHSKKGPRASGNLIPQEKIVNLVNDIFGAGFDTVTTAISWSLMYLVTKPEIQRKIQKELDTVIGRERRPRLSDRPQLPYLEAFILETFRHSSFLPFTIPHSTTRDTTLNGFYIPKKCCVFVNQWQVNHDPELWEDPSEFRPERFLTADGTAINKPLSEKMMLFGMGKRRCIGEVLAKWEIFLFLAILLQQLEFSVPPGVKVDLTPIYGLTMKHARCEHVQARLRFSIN

[1] = parameters: method as in PMID 31526003; conditions: rats, 10 mg/kg oral dose ref 8; cited from earlier work
hGABAA∞1β2γ2 = target: T3, hGABAA∞1β2γ2 (Homo sapiens, UniProt P14867+P18507+P47870); experiment: IonFlux HT electrophysiological assay; type: cell-based; conditions: 10 μM
T3 construct: Eurofins Cerep (France) and Eurofins Discovery (St. Charles, MO)
Method: Electrophysiological assays were also conducted to profile R-VK4-116 for activities on ion channel targets. The QPatch HT (patch clamp) measured the agonist or antagonist activity of R-VK4-116 on ion channels. For these assays, the voltage was used as the ligand to activate the channel and induce a measurable current. The IonFlux HT measured the agonist, antagonist, or PAM activity of R-VK4-116 on ligand-gated ion channels. For these assays, GABA or Acetylcholine (ACh) was used as the ligand to activate the channel and induce measurable current. The six ion channels tested at 10 μM of R-VK4-116 in replicate were hNav1.5 Peak, hERG, hKCNQ1/minK, hCav1.2, hGABAA∞1/β2g2 and hnAChR∞4/β2.

[2] = system: CYP1A2, CYP2B6, CYP2C8, CYP2C9, CYP2C19; experiment: CYP phenotyping, other recombinant CYP isoforms; type: in vitro ADME; conditions: 1 μM, up to 120 min
Method: CYP phenotyping involved the identification of CYP isoforms, which involved in the metabolism of R-VK4-116 using recombinant CYP1A2, CYP2B6, CYP2C8, CYP2C9, CYP2C19, CYP2D6, and CYP3A4 (XenoTech, LLC, Kansas City, KS), followed by determination of the Km and Vmax for the metabolites formed by the major CYP isoforms. […] In addition, R-VK4-116 was also incubated with all components in the absence of NADPH. […] Following brief vortexing and centrifugation, 50 μl of supernatant was mixed with 450 μl of 25:75:0.2 acetonitrile/water/formic acid for analysis by LC-MS/MS to determine the remaining R-VK4-116 at each time point based on peak area ratio (PAR) of R-VK4-116 to IS. As a positive control, the known substrate of each individual CYP isoform (phenacetin for CYP1A2, bupropion for CYP2B6, paclitaxel for CYP2C8, diclofenac for CYP2C9, diazepam for CYP2C19, bufuralol for CYP2D6, and testosterone for CYP3A4) was also incubated.

[3] = Stability in the absence of hepatocytes; conditions: no hepatocytes
Method: CYP3A4 substrate Midazolam (10 μM) was prepared and incubated in the same manner. […] In addition, in vitro half-life (t1/2, min) and intrinsic clearance (CLint, μl/min/10^6 cells) were calculated [10, 11].

10 enzyme targets = experiment: Enzyme and uptake assays; type: biochemical; conditions: 10 μM
Method: The purpose of this study was to provide a first step in preliminary safety assessments by providing early identification of potential off-target interactions for the optimization of safety margins. This study was conducted by Eurofins Cerep (France) and Eurofins Discovery (St. Charles, MO). R-VK4-116 was tested in enzyme and uptake assay with 10 enzyme targets (Figs 4 and 5 in S1 File), and cellular and nuclear receptor functional assays with 24 receptor targets (Figs 5 and 6 in S1 File). Compound enzyme inhibition effect was calculated as a % inhibition of control enzyme activity. The cellular agonist effect was calculated as a % of the control response to a known reference agonist for each target, and the cellular antagonist effect was calculated as a % inhibition of the control reference agonist response for each target.

T3 sequence (P14867 28-456): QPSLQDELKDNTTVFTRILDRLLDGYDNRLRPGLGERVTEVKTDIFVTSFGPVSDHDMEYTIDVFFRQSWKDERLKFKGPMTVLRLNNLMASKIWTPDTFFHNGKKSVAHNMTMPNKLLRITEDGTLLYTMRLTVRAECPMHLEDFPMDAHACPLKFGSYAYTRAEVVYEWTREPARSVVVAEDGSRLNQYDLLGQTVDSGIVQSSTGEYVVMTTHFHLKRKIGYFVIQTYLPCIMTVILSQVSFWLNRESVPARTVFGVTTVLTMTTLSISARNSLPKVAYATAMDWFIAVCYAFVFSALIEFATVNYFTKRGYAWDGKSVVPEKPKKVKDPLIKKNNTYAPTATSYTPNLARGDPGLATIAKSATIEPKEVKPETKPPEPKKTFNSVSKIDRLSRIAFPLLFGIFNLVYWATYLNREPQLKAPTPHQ
T3 sequence (P47870 25-512 limits assumed): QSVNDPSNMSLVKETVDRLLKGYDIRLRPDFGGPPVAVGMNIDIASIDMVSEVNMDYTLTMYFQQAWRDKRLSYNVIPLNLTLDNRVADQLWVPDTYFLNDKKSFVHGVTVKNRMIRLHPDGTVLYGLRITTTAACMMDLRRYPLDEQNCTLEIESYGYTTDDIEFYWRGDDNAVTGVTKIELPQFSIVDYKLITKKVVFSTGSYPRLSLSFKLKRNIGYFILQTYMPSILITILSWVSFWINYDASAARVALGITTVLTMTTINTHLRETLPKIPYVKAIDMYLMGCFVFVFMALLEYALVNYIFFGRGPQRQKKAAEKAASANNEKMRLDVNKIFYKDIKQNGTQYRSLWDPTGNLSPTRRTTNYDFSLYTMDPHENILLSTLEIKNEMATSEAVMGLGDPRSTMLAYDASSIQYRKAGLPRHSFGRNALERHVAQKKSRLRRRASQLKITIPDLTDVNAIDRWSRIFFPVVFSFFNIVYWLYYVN
T3 sequence (P18507 40-475): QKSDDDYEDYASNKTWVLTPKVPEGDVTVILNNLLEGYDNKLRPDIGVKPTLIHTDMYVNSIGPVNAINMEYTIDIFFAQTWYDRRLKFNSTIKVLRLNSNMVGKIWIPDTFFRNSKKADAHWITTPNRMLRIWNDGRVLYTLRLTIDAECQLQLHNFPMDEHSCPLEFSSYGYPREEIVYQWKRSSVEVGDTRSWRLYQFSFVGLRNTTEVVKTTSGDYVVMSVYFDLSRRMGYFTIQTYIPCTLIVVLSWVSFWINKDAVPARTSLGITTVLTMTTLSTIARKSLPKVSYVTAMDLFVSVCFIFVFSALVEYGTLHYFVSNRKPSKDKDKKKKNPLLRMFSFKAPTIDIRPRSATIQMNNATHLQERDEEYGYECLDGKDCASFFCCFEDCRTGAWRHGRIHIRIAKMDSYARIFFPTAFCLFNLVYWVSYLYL

CCc1cc(Cl)c(OC)c(N2CCN(CC(O)CCNC(=O)c3cc4ccccc4[nH]3)CC2)c1 (centres unmarked) [R-VK4-116, N-(4-(4-(3-chloro-5-ethyl-2-methoxyphenyl)piperazin-1-yl)-3-hydroxybutyl)-1H-indole-2-carboxamide]
Kd (TNK1; 11-point curve 0.001 to 10 μM, read-out: binding constant (Kd)): > 10 µM | remaining binding at 1 µM (TNK1; read-out: %Control): < 35% | remaining binding at 1 µM (TNK1; read-out: Gene (S-score with % control): TNK1): 17% | CYP1A2 inhibition (CYP1A2; up to 100 μM): did not inhibit CYP significantly | activity at 20 min, 0.1 µM (CYP1A2; human, probe phenacetin): 93.7 ± 5.5% | activity at 20 min, 0.3 µM (CYP1A2; human, probe phenacetin): 87.7 ± 2.4% | activity at 20 min, 1 µM (CYP1A2; human, probe phenacetin): 89.9 ± 0.9% | activity at 20 min, 3 µM (CYP1A2; human, probe phenacetin): 95.7 ± 5.2% | activity at 20 min, 10 µM (CYP1A2; human, probe phenacetin): 96.3 ± 4.7% | activity at 20 min, 30 µM (CYP1A2; human, probe phenacetin): 88.7 ± 1.9% | activity at 20 min, 60 µM (CYP1A2; human, probe phenacetin): 88.2 ± 2.3% | activity at 20 min, 100 µM (CYP1A2; human, probe phenacetin): 94 ± 5.2% | Cmax [1]: 454 nM | agonist effect (hGABAA∞1β2γ2): 97.71% | metabolism by other CYP isoforms [2]: Minimal to no metabolism | % remaining Vs T = 0 min ([3]; 0.5 μM, 0 min): 100.0% | % remaining Vs T = 0 min ([3]; 0.5 μM, 30 min): 86.2% | % remaining Vs T = 0 min ([3]; 0.5 μM, 60 min): 81.6% | % remaining Vs T = 0 min ([3]; 0.5 μM, 90 min): 79.9% | % remaining Vs T = 0 min ([3]; 0.5 μM, 120 min): 78.4% | % remaining Vs T = 0 min ([3]; 10 μM, 0 min): 100.0% | % remaining Vs T = 0 min ([3]; 10 μM, 30 min): 92.9% | % remaining Vs T = 0 min ([3]; 10 μM, 60 min): 87.5% | % remaining Vs T = 0 min ([3]; 10 μM, 90 min): 87.9% | % remaining Vs T = 0 min ([3]; 10 μM, 120 min): 77.3% | enzyme inhibition effects or uptake (10 enzyme targets): did not show any enzyme inhibition effects or uptake
